Laboratory results as given in article doi:10.1101/2025.01.02.631061v1 (biorxiv, 2025).
Like-named read-outs stand apart in the source and are kept apart here.

Key:
[1] = tested on: UnBGl1; assay: pNP release, absorbance […] nm, Michaelis-Menten; format: biochemical, soil metagenome; conditions: pH 6.0, 55 °C, 10 min
[2] = tested on: UnBGl1; conditions: optimum pH 6.5, 55 °C, 10 min
[3] = tested on: UnBGl1; conditions: pH 6.0, 55 °C, 10 min
[4] = tested on: UnBGl1; conditions: optimum pH 5.5, 50 °C, 30 min
[5] = tested on: UnBGl1; conditions: pH 6.0, 50 °C, 30 min

Row | Compound | Km [1] | Km [2] | Km [3] | Km [4] | Km [5]
1 | O=[N+]([O-])c1ccc(O[C@@H]2O[C@H](CO)[C@@H](O)[C@H](O)[C@H]2O)cc1 [4-nitrophenyl β-D-glucopyranoside] | 0.92 ± 0.05 mM | 0.65 ± 0.04 mM | 7.35 ± 3 mM |  | 
2 | OC[C@H]1O[C@@H](O[C@H]2[C@H](O)[C@@H](O)C(O)O[C@@H]2CO)[C@H](O)[C@@H](O)[C@@H]1O (some centres unmarked) [cellobiose] |  |  |  | 22.9 ± 1.1 mM | 34.6 ± 2.4 mM
